Where two headings read alike, the source gives them in different places.

One molecule from patent publication US20190000789A1, “COMPOSITION AND METHOD FOR TREATING INFECTIONS CAUSED BY VANCOMYCIN-RESISTANT INFECTIOUS AGENTS IN A SUBJECT” (priority 2015, published 2019) can be followed below.

In one assay the test system is S. coelicolor LAG2. In words: LC-MS analysis of peptidoglycan precursors, including time course after alanine addition. It is filed as cell-based, Streptomyces coelicolor. The method, then: In order to get more insights into the synthesis of vancomycin-sensitive (i.e., wild-type) or the alternate vancomycin-resistant peptidoglycan, the pool of peptidoglycan precursors was analyzed by Liquid Chromatography coupled to Mass Spectrometry (LC-MS). When cells produce wild-type PG, only the MurNac-pentapeptide with a D-Ala-D-Ala terminus are detected, while vancomycin-resistant PG precursors have a D-Ala-D-Lac terminus. To analyze the precursors produced in S. coelicolor M145 and its mutant derivatives LAG1 (Δddl) and LAG2 (Δddl vanS::IS466A) in the presence or absence of vancomycin, the strains were grown until exponential phase, after which the cultures were harvested, washed and the precursors extracted with 5% TCA. The supernatants were desalted, concentrated and analyzed by LC-MS (see Materials and Methods section).
To investigate what the effect would be of the addition of excess of D-Ala on the accumulation of wild-type precursors, a time-course experiment was performed to follow the effect of D-Ala addition on the ratio between wild-type and resistant precursors. Therefore, 300 ml liquid-grown NMMP cultures were supplemented with either D-Ala or L-Ala (control) at 50 mM end concentration, and 10 ml samples were collected prior to and 1, 5, 15, 30, 60, 120 and 180 minutes after the addition of either alanine stereoisomer. Samples were immediately filtered by vacuum filtration, washed in 0.9% NaCl, biomass scraped off the filter, added to a tube containing 5% TCA and samples prepared as described above. […] However, addition of 50 mM D-Ala triggered the production of small amounts of wt precursor (1%) within 1 minute. After 15 minutes, this amount had increased to 4%, which appeared to be close to the maximum, with levels of wt precursors never exceeding 5%.
For the precursor isolation and identification, a modification of the method described previously by Hong and colleagues (Hong et al., 2004) was used. 10 μg vancomycin was added to the strains at the moment of inoculation. The strains were grown in NMMP (1% (w/v) Mannitol, 50 mM MgCl2) until mid-log phase (OD-0.3-0.4) and mycelia were harvested by centrifugation at 4° C. and washed in 0.9% NaCl. The mycelium was extracted with 5% cold trichloric acid (TCA) for 30 minutes at 4° C. This was centrifuged and the supernatant desalted on a Sephadex G-25 column (Illustra NAP-10 Columns, GE Healthcare, Pittsburgh), and concentrated by rotary evaporation. The concentrated precursors were dissolved in HPLC-grade water and separated by LC-MS using a gradient of 0-20% acetonitrile in water with 0.1% TFA. The elution was monitored at 254 nm and monitored by the sizes eluted (1193.8-1195.3).
For the measurement over time, the protocol was adjusted in the following way: 300 ml NMMP cultures were grown until exponential phase, at which point a 10 ml sample was taken (sample t=0) and 50 mM of D-Ala or L-Ala was added, followed by further sampling after 1, 5, 15, 30, 60, 120 and 180 minutes. Samples were rapidly filtered with a vacuum pump and washed with 0.9% (w/v) NaCl, mycelia scraped off the filter and transferred to 5% TCA.

In assay [1] the test system is vanA-positive Enterococcus faecium clinical isolate vanA2. The assay can be described thus: MIC of vancomycin by serial dilution in 96-well plates with or without D-Ala. It is filed as cell-based. As to conditions: for MIC: Enterococcus faecium. The method, then:
(§1) Having established the important role of D-Ala in enhancing the efficacy of vancomycin against vancomycin-resistant S. coelicolor cells, next, its effect on the resistance of clinical isolates of Enterococcus faecium, which were vanA-positive strains, was assessed. MIC values were calculated by testing a serial dilution of vancomycin in the presence or absence of D-Ala in triplicate (Table 3).
(§2) The MIC was determined by measurement of the OD600 or by visual assessment, following the Clinical Laboratory and Standards Institute (CLSI) guidelines. […] This value compares to intermediate instead of total resistance. The strains were serially diluted in a 96-well plate and growth was assayed at OD600. The steps down refer to CSLI guidelines for clinical MIC measurements.
(§3) Five vanA-positive Enterococcus faecium strains were collected in 2011 and 2014 from patients in the Erasmus University Medical Centre, Rotterdam, The Netherlands. Presence of the vanA gene was confirmed by real-time PCR with the LIGHTCYCLER® 480 instrument (Roche Diagnostics, Almere, The Netherlands) with the primers vanA F1 and vanA R1, and the vanA probe. The resistance profile of these isolates was determined as MIC values using the VITEK II (BioMerieux) system AST-P586. To determine the MIC of vancomycin against E. faecium, cells were grown overnight on Trypticase Soy Agar (TSA) blood agar plates (Becton Dickinson, Breda, The Netherlands) and suspended in 0.9% NaCl until OD600 0.5 (±0.05). Of this suspension, 10 μl was dispensed into wells of sterile flat-bottom 96-well polystyrene tissue culture plates (Greiner Bio-One, Alphen aan Den Rijn, The Netherlands) containing serial dilutions of vancomycin in 190 μl of a 1:1 mixture of Fetal Bovine Serum (FBS) (Gibco, Bleiswijk, The Netherlands) and Iscove's Modified Dulbecco's Medium (IMDM) (without phenolred, Gibco, Bleiswijk, The Netherlands), and in the presence or absence of 50 mM D-alanine (Alfa Aesar, Ward Hill, Mass., USA). Plates were incubated for 18-24 hours at 37° C. and MIC values determined visually following the CLSI guidelines, or by spectrophotometer at 600 nm.

For assay [2], the system named is vanA-positive Enterococcus faecium clinical isolate vanA10. Described as above. The note with it: for MIC: Enterococcus faecium. It is filed as cell-based. The procedure:
as §1, §2, §3

Assay [3] deals with vanA-positive Enterococcus faecium clinical isolate vanA3. The description is as above. Type of assay: cell-based. As to conditions: for MIC: Enterococcus faecium. The procedure: as §1, §2, §3
In assay [4] the test system is vanA-positive Enterococcus faecium clinical isolate vanA4. The assay is described as above. Type of assay: cell-based. The note with it: for MIC: Enterococcus faecium. The procedure:
as §1, §2, §3

For assay [5], the system named is vanA-positive Enterococcus faecium clinical isolate vanA1. The description is as above. It is filed as cell-based. As to conditions: for MIC: Enterococcus faecium. The procedure:
as §1, §2, §3

For `CN[C@H](CC(C)C)C(=O)N[C@H]1C(=O)N[C@@H](CC(N)=O)C(=O)N[C@H]2C(=O)N[C@H]3C(=O)N[C@H](C(=O)N[C@H](C(=O)O)c4cc(O)cc(O)c4-c4cc3ccc4O)[C@H](O)c3ccc(c(Cl)c3)Oc3cc2cc(c3O[C@@H]2O[C@H](CO)[C@@H](O)[C@H](O)[C@H]2O[C@H]2C[C@](C)(N)[C@H](O)[C@H](C)O2)Oc2ccc(cc2Cl)[C@H]1O` [vancomycin], the “precursors terminated with D-Ala-D-Lac” value in the assay with S. coelicolor LAG2 (LAG2 grown with vancomycin) was determined as 99.8%. Further, in the assay on S. coelicolor LAG2 (LAG2 with vancomycin (FIG. 3B)), the “wild-type (vancomycin-sensitive) peptidoglycan” value is “less than 1%”. Further, the MIC (usually the lowest concentration that inhibits growth of the organism) in assay [1] (vanA2, 50 mM D-Ala, read-out: MIC with 50 mM D-Ala) came out at 256 µg/mL; in assay [1] (vanA2, read-out: MIC without D-Ala) it was 4100 µg/mL; in assay [2] (vanA10, 50 mM D-Ala, read-out: MIC with 50 mM D-Ala) it was 16 µg/mL; in assay [2] (vanA10, read-out: MIC without D-Ala) it was 2050 µg/mL; in assay [3] (vanA3, 50 mM D-Ala, read-out: MIC with 50 mM D-Ala), 128 µg/mL; in assay [3] (vanA3, read-out: MIC without D-Ala), 4100 µg/mL. In addition, the MIC is 128 µg/mL in assay [4] (vanA4, 50 mM D-Ala, read-out: MIC with 50 mM D-Ala); 4100 µg/mL in assay [4] (vanA4, read-out: MIC without D-Ala); 256 µg/mL in assay [5] (vanA1, 50 mM D-Ala, read-out: MIC with 50 mM D-Ala); 4100 µg/mL in assay [5] (vanA1, read-out: MIC without D-Ala). Also, the “reduction of MIC” value is listed as roughly 16 in assay [1] (vanA2, 50 mM D-Ala, approximation based on 2-fold dilution steps); roughly 128 in assay [2] (vanA10, 50 mM D-Ala, approximation based on 2-fold dilution steps); roughly 32 in assay [3] (vanA3, 50 mM D-Ala, approximation based on 2-fold dilution steps); roughly 32 in assay [4] (vanA4, 50 mM D-Ala, approximation based on 2-fold dilution steps); roughly 16 in assay [5] (vanA1, 50 mM D-Ala, approximation based on 2-fold dilution steps).
